Holding throughout (assay): in vitro antibacterial test (M.I.C.)
What all share (type): cell-based

In one test the test system is Salmonella spp. The source says: (§1) Die folgende Tabelle gibt die Resultate von in vitro Versuchen unter Verwendung von (1R)-1-(L-Pyroglutamyl-L-norvalyl-L-norvalylamirio)-ethylphosphonsäure gegen einige repräsentative pathogene Mikroorganismen wieder.
A further test deals with S. albus. The conditions noted are these: Staphylococcus albus.
From the text: as §1

For the next test, the system named is E. coli. The note with it: Escherichia coli.
From the text: as §1

Another test has as its system S. pyogenes. The note with it: Streptococcus pyogenes.
From the text: as §1

Another test deals with S. faecalis. The conditions noted are these: Enterococcus faecalis.
From the text: as §1

The test system of the next test is Klebsiella spp.
From the text: as §1

A further test relates to Shigella spp.
From the text: as §1

In another test the test system is S. pneumoniae. The conditions noted are these: Streptococcus pneumoniae.
From the text: as §1

A further test relates to S. marcescens. The conditions noted are these: Serratia marcescens.
From the text: as §1

The test system of a further test is H. influenzae. The conditions noted are these: Haemophilus influenzae.
From the text: as §1

≈ marks a conversion by molar mass, not a printed value.

With `CCC[C@H](NC(=O)[C@@H]1CCC(=O)N1)C(=O)N[C@@H](CCC)C(=O)N[C@@H](C)P(=O)(O)O` [Beispiel 1, (1R)-1-(L-Pyroglutamyl-L-norvalyl-L-norvalylamino)-ethylphosphonsäure], the MIC against Salmonella spp. is 20 µg/mL (≈ 46 µM); in the test with S. albus, 16 µg/mL (≈ 36.8 µM); with E. coli it was 0.25 µg/mL (≈ 0.575 µM); in the test with S. pyogenes, 16 µg/mL (≈ 36.8 µM); with S. faecalis it was 0.05 µg/mL (≈ 0.115 µM); with Klebsiella spp., 16 µg/mL (≈ 36.8 µM). Also, the MIC with Shigella spp. came out at 1.1 µg/mL (≈ 2.53 µM); against S. pneumoniae, 2.4 µg/mL (≈ 5.52 µM); against S. marcescens it was 30 µg/mL (≈ 69.1 µM); in the test with H. influenzae, 0.2 µg/mL (≈ 0.46 µM).

These data come from patent publication EP0026867A1, “Peptidylphosphonic acids, their preparation and use, and pharmaceutical preparations containing them” (F. HOFFMANN-LA ROCHE & CO. Aktiengesellschaft, priority 1979, dated 1981).
